US9969747B2 (Constellation Pharmaceuticals, Inc., priority 2014, dated 2018)
“And” between values parts separate entries of the source, which are not always exact repeats. Equal values may be shown once. Read-outs that look alike come from different tables or passages of the source. Each block holds one compound with its values, some of them ahead of it.

Experiments:
[1] = Oral pharmacokinetics in male Sprague Dawley rats, suspension in 0.5% Methylcellulose; type: in vivo; details: for Plasma concentration, PO1: group value
[2] = Oral pharmacokinetics in male beagle dogs, crossover, suspension in 0.5% MC; type: in vivo; details: for Inter-individual variability: 2 mg/Kg oral, crossover
Protocol: The objective was to compare the pharmacokinetic profiles of both forms in dogs using a crossover study design in which the same dogs were dosed sequentially with amorphous and monohydrate crystalline Form A with a washout period in between.

[3] = Solubility and form stability in deionized water; type: physicochemical
[4] = Gravimetric moisture sorption; type: physicochemical; details: over a relative humidity range of 5 to 95%
From the text: This level of stability is rare for many pharmaceutical compounds, and particularly for hydrated forms since most are typically stable only at lower threshold values. Typically, one would expect to see stability of a monohydrate stoichiometry over a more limited range, e.g., between 30 to 70%. At relative humidity levels below 30% a compound would still retain water, but the stoichiometric ratio would be less than that of a true monohydrate. Likewise, at high relative humidity, the stoichiometric ratio of water to compound would exceed that of a monohydrate.

[5] = 60 mg/Kg single oral dose, 1 h, 60 mg/kg
[6] = 60 mg/Kg single oral dose, 1 h, 60 mg/kg, in ng/mL
[7] = 60 mg/Kg single oral dose, 2 h, 60 mg/kg
[8] = 60 mg/Kg single oral dose, 2 h, 60 mg/kg, in ng/mL
[9] = 60 mg/Kg single oral dose, 4 h, 60 mg/kg
[10] = 60 mg/Kg single oral dose, 8 h, 60 mg/kg
[11] = 60 mg/Kg single oral dose, 24 h, 60 mg/kg
[12] = male beagle dog, 2 mg/Kg single oral dose, 0.25 h, 2 mg/kg
[13] = male beagle dog, 2 mg/Kg single oral dose, 0.5 h, 2 mg/kg
[14] = male beagle dog, 2 mg/Kg single oral dose, 1 h, 2 mg/kg
[15] = male beagle dog, 2 mg/Kg single oral dose, 2 h, 2 mg/kg
[16] = male beagle dog, 2 mg/Kg single oral dose, 4 h, 2 mg/kg
[17] = male beagle dog, 2 mg/Kg single oral dose, 6 h, 2 mg/kg
[18] = male beagle dog, 2 mg/Kg single oral dose, 8 h, 2 mg/kg
[19] = male beagle dog, 2 mg/Kg single oral dose, 12 h, 2 mg/kg
[20] = male beagle dog, 2 mg/Kg single oral dose, 24 h, 2 mg/kg
[21] = male beagle dog, 2 mg/Kg single oral dose, 2 mg/kg
[22] = 60 mg/Kg single oral dose, 60 mg/kg

Plasma concentration, individual rats [1, 5]: 8650 ng/mL | Plasma concentration, Mean [1, 6]: 11700 | Plasma concentration, individual rats [1, 6]: 12700 and 13800 | Plasma concentration, individual rats [1, 7]: 8830 ng/mL | Plasma concentration, Mean [1, 8]: 11900 | Plasma concentration, individual rats [1, 8]: 14900 and 12100 | Plasma concentration, Mean [1, 9]: 9860 ng/mL | Plasma concentration, individual rats [1, 9]: 8410 ng/mL and 9370 ng/mL | Plasma concentration, individual rats ([1]; 60 mg/Kg single oral dose, 4 h, 60 mg/kg, in ng/mL): 11800 | Plasma concentration, Mean [1, 10]: 6440 ng/mL | Plasma concentration, individual rats [1, 10]: 6550 ng/mL and 6450 ng/mL and 6310 ng/mL | Plasma concentration, Mean ([1]; 60 mg/Kg single oral dose, 24 h): BQL | Plasma concentration, individual rats [1, 11]: BQL | Cmax ([1]; male, Sprague Dawley, rat, plasma, po, 60 mg/kg, 60 mg/Kg single oral dose, read-out: Cmax): 11900 ng/mL | Tmax ([1]; rat, plasma, 60 mg/Kg single oral dose, read-out: Tmax): 2 h | Inter-individual variability ([2]; male beagle dog): low inter-individual variability | Plasma concentration, Mean [2, 12]: 188 ng/mL | Plasma concentration, Mean [2, 13]: 471 ng/mL | Plasma concentration, Mean [2, 14]: 658 ng/mL | Plasma concentration, Mean [2, 15]: 577 ng/mL | Plasma concentration, Mean [2, 16]: 528 ng/mL | Plasma concentration, Mean [2, 17]: 289 ng/mL | Plasma concentration, Mean [2, 18]: 232 ng/mL | Plasma concentration, Mean [2, 19]: 153 ng/mL | Plasma concentration, Mean [2, 20]: 64 ng/mL | MRT0-last, individual dogs [2, 21]: 7.73 h (2×) and 6.48 h and 7.69 h | Tmax, individual dogs [2, 21]: 1.00 h (5×) and 4.00 h | Tmax ([2]; male, beagle, dog, plasma, po, 2 mg/kg, 2 mg/Kg single oral dose): 1.5 h | AUC(0-inf) ([2]; male, beagle, dog, plasma, po, 2 mg/kg, 2 mg/Kg single oral dose, read-out: AUC0-inf, Mean): 6220 ng·h/mL | AUC(0-inf) ([2]; male, beagle, dog, plasma, po, 2 mg/kg, 2 mg/Kg single oral dose, read-out: AUC0-inf, individual dogs): 6110 ng·h/mL | AUC(0-t) ([2]; male, beagle, dog, plasma, po, 2 mg/kg, 2 mg/Kg single oral dose, read-out: AUC0-last, Mean): 5390 ng·h/mL | AUC(0-t) ([2]; male, beagle, dog, plasma, po, 2 mg/kg, 2 mg/Kg single oral dose, read-out: AUC0-last, individual dogs): 5370 ng·h/mL | Cmax ([2]; male, beagle, dog, plasma, po, 2 mg/kg, 2 mg/Kg single oral dose, read-out: Cmax, Mean): 670 ng/mL | Cmax ([2]; male, beagle, dog, plasma, po, 2 mg/kg, 2 mg/Kg single oral dose, read-out: Cmax, individual dogs): 609 ng/mL | MRT inf ([2]; male, beagle, dog, plasma, po, 2 mg/kg, 2 mg/Kg single oral dose, read-out: MRT0-inf, Mean): 11.2 h | MRT inf ([2]; male, beagle, dog, plasma, po, 2 mg/kg, 2 mg/Kg single oral dose, read-out: MRT0-inf, individual dogs): 11 h | MRT last ([2]; male, beagle, dog, plasma, po, 2 mg/kg, 2 mg/Kg single oral dose, read-out: MRT0-last, Mean): 7.45 h | MRT last ([2]; male, beagle, dog, plasma, po, 2 mg/kg, 2 mg/Kg single oral dose, read-out: MRT0-last, individual dogs): 7.59 h | half-life ([2]; male, beagle, dog, plasma, po, 2 mg/kg, 2 mg/Kg single oral dose, read-out: T1/2, Mean (converted)): 8.59 h | half-life ([2]; male, beagle, dog, plasma, po, 2 mg/kg, 2 mg/Kg single oral dose, read-out: T1/2, individual dogs (converted)): 8.31 h
SMILES: Cc1noc2c1-c1ccccc1C(c1ccc(Cl)cc1)=N[C@H]2CC(N)=O [amorphous form, 2-((4S)-6-(4-chlorophenyl)-1-methyl-4H-benzo[c]isoxazolo[4,5-e]azepin-4-yl)acetamide]
AUC0-inf, individual dogs [2, 21]: 5120 ng·h/mL and 7510 ng·h/mL and 6550 ng·h/mL and 4950 ng·h/mL and 7070 ng·h/mL | AUC0-last, individual dogs [2, 21]: 4560 ng·h/mL and 6220 ng·h/mL and 5540 ng·h/mL and 4610 ng·h/mL and 6060 ng·h/mL | Cmax, individual dogs [2, 21]: 646 ng/mL and 681 ng/mL and 672 ng/mL and 705 ng/mL and 706 ng/mL | T1/2, individual dogs [2, 21]: 7.86 h and 10.17 h and 9.21 h and 6.82 h and 9.17 h | Form change upon slurry in deionized water ([3]; slurry in deionized water for 24 hr at ambient temperature): conversion to monohydrate Form A was observed

Plasma concentration, individual rats ([1]; 10 mg/Kg single oral dose, 299 s, 10 mg/kg): 51.3 ng/mL and 182 ng/mL and 89.2 ng/mL and 191 ng/mL and 166 ng/mL and 31.5 ng/mL | Plasma concentration, individual rats ([1]; 10 mg/Kg single oral dose, 1.00 h, 10 mg/kg): 1940 ng/mL and 1620 ng/mL and 1510 ng/mL and 2300 ng/mL and 1790 ng/mL and 1600 ng/mL | Plasma concentration, PO1 ([1]; 10 mg/Kg single oral dose, 1.00 h): 1790 ng/mL | Plasma concentration, individual rats ([1]; 10 mg/Kg single oral dose, 2.00 h, 10 mg/kg): 1400 ng/mL and 1320 ng/mL and 1420 ng/mL and 1650 ng/mL and 950 ng/mL and 1000 ng/mL | Plasma concentration, PO1 ([1]; 10 mg/Kg single oral dose, 2.00 h): 1290 ng/mL | Plasma concentration, individual rats ([1]; 10 mg/Kg single oral dose, 4.00 h, 10 mg/kg): 611 ng/mL and 349 ng/mL and 569 ng/mL and 544 ng/mL and 166 ng/mL and 255 ng/mL | Plasma concentration, PO1 ([1]; 10 mg/Kg single oral dose, 4.00 h): 416 ng/mL | Plasma concentration, individual rats ([1]; 10 mg/Kg single oral dose, 8.00 h, 10 mg/kg): 56.3 ng/mL and 18.1 ng/mL and 32.4 ng/mL and 13.6 ng/mL and 2.93 ng/mL and 18.2 ng/mL | Plasma concentration, PO1 ([1]; 10 mg/Kg single oral dose, 8.00 h): 23.6 ng/mL | Tmax ([1]; 60 mg/Kg single oral dose): 2.0 h | AUC0-last [1, 22]: 52800 ng·h/mL | Cmax [1, 22]: 7197 ng/mL | Plasma concentration, Mean ([1]; 60 mg/Kg single oral dose, 299 s): 304 ng/mL | Plasma concentration, individual rats ([1]; 60 mg/Kg single oral dose, 299 s, 60 mg/kg): 183 ng/mL and 407 ng/mL and 512 ng/mL and 158 ng/mL and 391 ng/mL and 172 ng/mL | Plasma concentration, Mean ([1]; 60 mg/Kg single oral dose, 0.250 h): 2150 ng/mL | Plasma concentration, individual rats ([1]; 60 mg/Kg single oral dose, 0.250 h, 60 mg/kg): 1830 ng/mL and 2770 ng/mL and 2670 ng/mL and 2150 ng/mL and 2050 ng/mL and 1420 ng/mL | Plasma concentration, Mean ([1]; 60 mg/Kg single oral dose, 0.500 h): 4060 ng/mL | Plasma concentration, individual rats ([1]; 60 mg/Kg single oral dose, 0.500 h, 60 mg/kg): 3610 ng/mL and 5250 ng/mL and 3790 ng/mL and 4120 ng/mL and 4050 ng/mL and 3550 ng/mL | Plasma concentration, Mean [1, 5]: 5530 ng/mL | Plasma concentration, individual rats [1, 5]: 5290 ng/mL and 6110 ng/mL and 6840 ng/mL and 5440 ng/mL and 4740 ng/mL and 4770 ng/mL | Plasma concentration, Mean [1, 7]: 7200 ng/mL | Plasma concentration, individual rats [1, 7]: 8220 ng/mL and 7490 ng/mL and 6700 ng/mL and 8330 ng/mL and 6850 ng/mL and 5590 ng/mL | Plasma concentration, Mean [1, 9]: 6070 ng/mL | Plasma concentration, individual rats [1, 9]: 7740 ng/mL and 4850 ng/mL and 5160 ng/mL and 8350 ng/mL and 5690 ng/mL and 4650 ng/mL | Plasma concentration, Mean [1, 10]: 1760 ng/mL | Plasma concentration, individual rats [1, 10]: 3050 ng/mL and 805 ng/mL and 1220 ng/mL and 1960 ng/mL and 2320 ng/mL and 1200 ng/mL | Plasma concentration, individual rats [1, 11]: BQL (5×) and 1.04 | AUC(0-t) ([1]; male, Sprague Dawley, rat, plasma, po, 10 mg/kg, 10 mg/Kg single oral dose): 5500 ng·h/mL | Cmax ([1]; male, Sprague Dawley, rat, plasma, po, 10 mg/kg, 10 mg/Kg single oral dose, read-out: Cmax): 1790 ng/mL | Inter-individual differences ([1]; oral, 10 and 60 mg/Kg): Low inter-individual differences | Tmax ([1]; rat, plasma, 10 mg/Kg single oral dose, read-out: Tmax): 1 h | Water content (monohydrate stoichiometry) in gravimetric moisture sorption [4]: approximately 5% | Inter-individual variability ([2]; male beagle dog): low inter-individual variability | Tmax, Mean ([2]; male beagle dog, 2 mg/Kg single oral dose): 1.50 h | Plasma concentration, Mean [2, 12]: 100 ng/mL | Plasma concentration, Mean [2, 13]: 330 ng/mL | Plasma concentration, Mean [2, 14]: 522 ng/mL | Plasma concentration, Mean [2, 15]: 512 ng/mL | Plasma concentration, Mean [2, 16]: 435 ng/mL | Plasma concentration, Mean [2, 17]: 278 ng/mL | Plasma concentration, Mean [2, 18]: 214 ng/mL | Plasma concentration, Mean [2, 19]: 151 ng/mL | Plasma concentration, Mean [2, 20]: 67.1 ng/mL | AUC0-inf, Mean [2, 21]: 5853 ng·h/mL | AUC0-last, Mean [2, 21]: 4892 ng·h/mL | Cmax, Mean [2, 21]: 536 ng/mL | MRT0-last, Mean [2, 21]: 7.95 h | T1/2, Mean [2, 21]: 9.70 h | Tmax, individual dogs [2, 21]: 2.00 h | Stability of the form in deionized water ([3]; deionized water): stable | solubility ([3]; deionized water, water, thermodynamic from solid): 4.5 µg/mL
SMILES: Cc1noc2c1-c1ccccc1C(c1ccc(Cl)cc1)=N[C@H]2CC(N)=O [monohydrate Form A, 2-((4S)-6-(4-chlorophenyl)-1-methyl-4H-benzo[c]isoxazolo[4,5-e]azepin-4-yl)acetamide]
Dose proportionality of Cmax and AUC ([1]; oral, dose increases from 10 to 60 mg/Kg): increase slightly more than proportionally with the dose | AUC0-inf, individual dogs [2, 21]: 5350 ng·h/mL and 4540 ng·h/mL and 7490 ng·h/mL and 4980 ng·h/mL and 6220 ng·h/mL and 6540 ng·h/mL | AUC0-last, individual dogs [2, 21]: 4650 ng·h/mL and 4040 ng·h/mL and 5850 ng·h/mL and 3960 ng·h/mL and 5390 ng·h/mL and 5460 ng·h/mL | Cmax, individual dogs [2, 21]: 542 ng/mL and 482 ng/mL and 615 ng/mL and 459 ng/mL and 549 ng/mL and 569 ng/mL | MRT0-last, individual dogs [2, 21]: 7.74 h and 7.34 h and 8.38 h and 8.01 h and 7.93 h and 8.32 h | T1/2, individual dogs [2, 21]: 8.60 h and 8.14 h and 11.97 h and 11.58 h and 8.31 h and 9.57 h
